One experiment deals with T1, TLR8 (Homo sapiens, UniProt Q9NR97).
T1 construct: human HEK-Blue cells co-expressing a TLR7 or TLR8 gene
T1 sequence (Q9NR97 27-1041): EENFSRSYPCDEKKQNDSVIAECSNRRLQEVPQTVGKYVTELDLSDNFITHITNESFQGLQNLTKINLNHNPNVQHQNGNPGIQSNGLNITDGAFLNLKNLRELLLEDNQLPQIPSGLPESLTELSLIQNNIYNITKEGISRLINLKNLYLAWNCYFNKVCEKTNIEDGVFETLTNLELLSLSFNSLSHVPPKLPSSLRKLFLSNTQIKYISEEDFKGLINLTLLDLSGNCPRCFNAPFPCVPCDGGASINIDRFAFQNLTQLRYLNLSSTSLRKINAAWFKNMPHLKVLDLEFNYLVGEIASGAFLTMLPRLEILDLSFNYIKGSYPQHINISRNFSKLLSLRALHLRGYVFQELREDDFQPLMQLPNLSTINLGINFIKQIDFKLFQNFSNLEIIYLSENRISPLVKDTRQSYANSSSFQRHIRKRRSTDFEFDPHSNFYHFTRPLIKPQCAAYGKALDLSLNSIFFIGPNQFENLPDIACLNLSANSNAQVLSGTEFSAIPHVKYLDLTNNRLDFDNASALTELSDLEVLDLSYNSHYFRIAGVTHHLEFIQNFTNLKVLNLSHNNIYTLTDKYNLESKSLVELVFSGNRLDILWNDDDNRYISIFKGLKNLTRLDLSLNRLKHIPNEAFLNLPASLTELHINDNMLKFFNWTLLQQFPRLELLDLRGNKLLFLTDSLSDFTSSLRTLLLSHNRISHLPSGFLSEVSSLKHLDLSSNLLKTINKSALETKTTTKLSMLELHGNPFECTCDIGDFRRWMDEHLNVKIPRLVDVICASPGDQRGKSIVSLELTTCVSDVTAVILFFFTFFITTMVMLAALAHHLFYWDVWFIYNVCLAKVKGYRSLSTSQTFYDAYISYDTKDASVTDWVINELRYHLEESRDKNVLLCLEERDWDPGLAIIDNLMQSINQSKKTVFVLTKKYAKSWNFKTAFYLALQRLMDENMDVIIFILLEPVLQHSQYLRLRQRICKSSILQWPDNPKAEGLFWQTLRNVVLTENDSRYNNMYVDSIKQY
Nature of the experiment: In vitro human TLR8 binding reporter assay (HEK-Blue, NF-kB/AP1-inducible SEAP). Format: cell-based. Conditions: activity range class, read-out: TLR8 Agonist EC50. How it is done: (§1) In Vitro Human TLR7 and TLR8 Binding Reporter Assays
(§2) Logarithmically-growing human HEK-Blue cells co-expressing a TLR7 or TLR8 gene and a NF-kB/AP1-inducible SEAP (secreted embryonic alkaline phosphatase; Invivogen, San Diego, CA) reporter gene are added to individual wells of a 384-well plate (15,000 cells per 20 μL per well) and maintained for 24 h at 37° C., 5% CO2. Test compounds or DMSO are distributed to separate wells the next day using acoustic liquid handling technology (100 nL per well) and cells are subsequently incubated for 18 h at 37° C., 5% CO2. Cellular SEAP production is measured using an Envision plate reader instrument thirty minutes after adding freshly-made Quanti-Blue reagent (prepared by following manufacturer instructions; Invivogen, San Diego, CA) to the HEK-Blue TLR Nf-kB-SEAP cell reactions. All EC50 values (half-maximal effective concentration) are determined using proprietary data analysis software. Normalized EC50 value=absolute value determined by setting 100% Ymax using a reference standard RLU (relative light unit) values from cells treated with 50 μM of the reference standard.

The target of the next experiment is T2, TLR7 (Homo sapiens, UniProt Q9NYK1).
T2 construct: human HEK-Blue cells co-expressing a TLR7 or TLR8 gene
T2 sequence (Q9NYK1 27-1049): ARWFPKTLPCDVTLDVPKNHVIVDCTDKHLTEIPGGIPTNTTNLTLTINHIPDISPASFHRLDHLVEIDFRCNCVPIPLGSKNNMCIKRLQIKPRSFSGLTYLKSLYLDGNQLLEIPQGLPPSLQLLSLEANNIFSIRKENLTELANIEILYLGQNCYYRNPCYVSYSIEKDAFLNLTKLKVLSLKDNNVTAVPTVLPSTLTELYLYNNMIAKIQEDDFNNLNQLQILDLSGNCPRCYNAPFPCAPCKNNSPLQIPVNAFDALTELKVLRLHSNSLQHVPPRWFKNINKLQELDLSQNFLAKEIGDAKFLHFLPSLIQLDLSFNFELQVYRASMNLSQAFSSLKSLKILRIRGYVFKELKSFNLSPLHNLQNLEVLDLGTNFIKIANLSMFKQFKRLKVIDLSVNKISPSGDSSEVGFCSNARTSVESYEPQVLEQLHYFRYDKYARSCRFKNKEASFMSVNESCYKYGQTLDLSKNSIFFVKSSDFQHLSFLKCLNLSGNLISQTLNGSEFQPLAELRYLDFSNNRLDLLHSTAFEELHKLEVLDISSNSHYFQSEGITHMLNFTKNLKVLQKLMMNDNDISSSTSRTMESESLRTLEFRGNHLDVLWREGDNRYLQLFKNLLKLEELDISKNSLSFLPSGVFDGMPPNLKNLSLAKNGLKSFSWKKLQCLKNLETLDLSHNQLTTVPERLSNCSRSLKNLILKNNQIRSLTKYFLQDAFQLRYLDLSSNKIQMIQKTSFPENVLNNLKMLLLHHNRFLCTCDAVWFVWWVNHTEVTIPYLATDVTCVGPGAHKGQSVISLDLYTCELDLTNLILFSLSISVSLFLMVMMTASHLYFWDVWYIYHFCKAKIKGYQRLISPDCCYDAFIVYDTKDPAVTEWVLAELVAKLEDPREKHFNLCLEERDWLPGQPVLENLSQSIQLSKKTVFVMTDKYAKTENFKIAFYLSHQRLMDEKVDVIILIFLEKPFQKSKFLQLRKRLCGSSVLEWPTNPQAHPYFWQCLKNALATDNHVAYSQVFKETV
The experiment can be described thus: In vitro human TLR7 binding reporter assay (HEK-Blue, NF-kB/AP1-inducible SEAP). The settings on record: activity range class, read-out: TLR7 Agonist EC50. The experiment is classed as cell-based. How it is done: as §1, §2
(A reporter such as luciferase makes a cellular process visible.)

The subject of a further experiment is THP-1 cells. The experiment can be described thus: Measurement of IL-1β production, hTRF protocol (second alternative procedure), THP-1 cells. The experiment is classed as cell-based, human. Conditions: human, read-out: NLRP3 hILIB EC50. How it is done: Measurement of IL-1β Production—hTRF Protocol (Second Alternative Procedure)
Serial dilutions of compounds in DMSO were added to low volume 384 well plates at 100 nl/well using an ECHO 550 acoustic dispenser (Labcyte) to achieve final starting concentration of 10 μM in assay.
THP-1 cells in RPMI (Gibco, 11875) media with 10% FBS at a density of 1×10^6 cell/ml in a T175 flask were treated with a final concentration of phorbol 12-myristate 13-acetate (PMA) (Sigma, P1585) of 50 ng/ml overnight at 37° C. at 5% CO2 for differentiation. Cells were harvested the next day after rinsing well with dPBS using 0.5% trypsin. A cell solution was prepared of 1×10^6 cells/ml for 50,000 cells in 50 μl/well in RPMI media with 2% FBS. Cells were plated using a multichannel pipette onto the compound dilutions in Greiner, 384 well, black clear bottom tissue culture treated plates (781090). The plates were incubated in 37° C. incubator at 5% CO2 for 2 hours.
After the 2 hour incubation, the cell plates were spun in the centrifuge for 5 minutes at 1200 rpm. Using the Felix (CyBio), 8 μl of the supernatant was transferred to 384 well, low volume, white proxy plates. (Perkin Elmer, 6008230). A human IL1beta hTRF kit was used to analyze the supernatant (CISBIO, 62HIL1BPEG). The kit instructions were followed for preparing the IL1Beta standard curve and then the antibodies from the kit were diluted 1:40 rather than 1:20 as kit instructed. Once combined, the antibodies were added across the plates, 5 μl/well. The plates were sealed and incubated at 4° C. overnight. The plates were then read on the Perkin Elmer EnVision at 665/615 nm using the hTRF laser.

The mark [1] stands for this setting: Homo sapiens, THP-1, IL-1β production.

Read-outs that look alike come from different tables or passages of the source.

The term EC50 denotes the midpoint of the concentration-response curve. For the compound `Nc1nc2cc(-c3cc[nH]n3)ccc2c2nn(C3COCC3O)cc12` (single isomer, unassigned) [Example 324], the EC50 at TLR8 is > 100 µM; on TLR7 it was > 100 µM; with THP-1 cells (setting [1]), 1.57 µM.
As for `Nc1nc2cc(-c3cc[nH]n3)ccc2c2nn(C3COCC3O)cc12` (single isomer, unassigned) [Example 325], the EC50 on TLR8 is > 100 µM; on TLR7, > 100 µM; in the experiment with THP-1 cells (IL-1β production), 1.49 µM.
For `Nc1nc2cc(-c3cc[nH]n3)ccc2c2nn(CC3CCOC3)cc12` (single isomer, unassigned) [Example 327], the EC50 at TLR8 was > 100 µM; on TLR7, > 100 µM; with THP-1 cells (setting [1]) it was 0.7 µM.
`Nc1nc2cc(-c3cc[nH]n3)ccc2c2nn(CC3CCOC3)cc12` (single isomer, unassigned) [Example 328]: the EC50 on TLR8 is > 100 µM; at TLR7, > 100 µM; in the experiment on THP-1 cells (IL-1β production) it was 1.35 µM.
In the case of `COCC(C)n1cc2c(N)nc3cc(-c4cc[nH]n4)ccc3c2n1` (single isomer, unassigned) [Example 337], the EC50 on TLR8 was > 100 µM; at TLR7, > 100 µM; in the experiment on THP-1 cells (setting [1]), 0.22 µM.
In the case of `COCC(C)n1cc2c(N)nc3cc(-c4cc[nH]n4)ccc3c2n1` (single isomer, unassigned) [Example 338], the EC50 at TLR8 was > 100 µM; on TLR7, > 100 µM; in the experiment on THP-1 cells (IL-1β production), 0.39 µM.
As to `Nc1nc2cc(-c3cc[nH]n3)ccc2c2nn(C3CCCC3O)cc12` (single isomer, unassigned) [Example 340], the EC50 on TLR8 was > 100 µM; at TLR7 it was > 100 µM; in the experiment with THP-1 cells (IL-1β production), 0.62 µM.
Take `Nc1nc2cc(-c3cc[nH]n3)ccc2c2nn(C3CCC(O)C3)cc12` (single isomer, unassigned) [Example 341]: the results for the EC50 on TLR8, at TLR7 and in the experiment with THP-1 cells (setting [1]) were > 100 µM, > 100 µM and 0.43 µM, respectively.
Regarding `Nc1nc2cc(-c3cc[nH]n3)ccc2c2nn(C3CCC(O)C3)cc12` (single isomer, unassigned) [Example 342], the EC50 at TLR8 is > 100 µM; at TLR7, > 100 µM; in the experiment with THP-1 cells (IL-1β production), 0.34 µM.
With `CC1(O)CCCC1n1cc2c(N)nc3cc(-c4cc[nH]n4)ccc3c2n1` (single isomer, unassigned) [Example 344], the results for the 50% effective concentration (EC50) on TLR8, on TLR7 and in the experiment with THP-1 cells (setting [1]) were > 100 µM, > 100 µM and 1.02 µM, respectively.
As to `CC1(O)CCCC1n1cc2c(N)nc3cc(-c4cc[nH]n4)ccc3c2n1` (single isomer, unassigned) [Example 345], the EC50 at TLR8 was > 100 µM; on TLR7 it was > 100 µM; with THP-1 cells (IL-1β production) it was 2.03 µM.
Take `COC(C)Cn1cc2c(N)nc3cc(-c4cc[nH]n4)ccc3c2n1` (single isomer, unassigned) [Example 346]: the figures for the EC50 on TLR8, on TLR7 and with THP-1 cells (IL-1β production) were > 100 µM, > 100 µM and 0.65 µM, respectively.
On to `COC(C)Cn1cc2c(N)nc3cc(-c4cc[nH]n4)ccc3c2n1` (single isomer, unassigned) [Example 347], for which the 50% effective concentration (EC50) at TLR8 was > 100 µM; on TLR7, > 100 µM; in the experiment with THP-1 cells (IL-1β production) it was 0.3 µM.
As for `Nc1nc2cc(-c3cc[nH]n3)ccc2c2nn(CC(O)CF)cc12` (single isomer, unassigned) [Example 376], the results for the EC50 at TLR8, on TLR7 and in the experiment with THP-1 cells (setting [1]) were > 100 µM, > 100 µM and 0.4 µM, respectively.
As to `Nc1nc2cc(-c3cc[nH]n3)ccc2c2nn(CC(O)CF)cc12` (single isomer, unassigned) [Example 377], the EC50 on TLR8 was > 100 µM; at TLR7, > 100 µM; in the experiment on THP-1 cells (IL-1β production) it was 0.45 µM.
With `Nc1nc2cc(-c3cc[nH]n3)ccc2c2nn(CC(O)CC(F)(F)F)cc12` (single isomer, unassigned) [Example 378], the EC50 at TLR8 is > 100 µM; on TLR7 it was > 100 µM; in the experiment with THP-1 cells (setting [1]), 0.64 µM.
On to `Nc1nc2cc(-c3cc[nH]n3)ccc2c2nn(CC(O)CC(F)(F)F)cc12` (single isomer, unassigned) [Example 379], for which the concentration for a half-maximal effect (EC50) at TLR8 is > 100 µM; on TLR7 it was > 100 µM; with THP-1 cells (IL-1β production), 0.32 µM.
As for `Nc1nc2cc(-c3cc[nH]n3)ccc2c2cn(CCCO)nc12` [Example 1, 3-[4-amino-7-(1H-pyrazol-3-yl)-2H-pyrazolo[3,4-c]quinolin-2-yl]propan-1-ol], the EC50 is > 100 µM on TLR8, > 100 µM on TLR7 and 0.45 µM in the experiment on THP-1 cells (setting [1]).
For `Nc1nc2cc(-c3cc[nH]n3)ccc2c2cn(CCCOc3ccccc3)nc12` [Example 2, 2-(3-phenoxypropyl)-7-(1H-pyrazol-3-yl)-2H-pyrazolo[3,4-c]quinolin-4-amine], the EC50 on TLR8 is 20 to 100 µM; on TLR7, 20 to 100 µM; in the experiment on THP-1 cells (setting [1]) it was 0.43 µM.

The values above are taken from patent US12037344B2, “NLRP3 modulators” (INNATE TUMOR IMMUNITY, INC., priority 2018, dated 2024).
